Two compounds from patent US9206215B2, “Hydrous crystalline 2-O-α-D-glucosyl-L-ascorbic acid, particulate composition comprising the same, their preparation and uses” (HAYASHIBARA CO., LTD., priority 2010, dated 2015) can be followed below.

Type in all cases: physicochemical
Series [1] can be described thus: Oil-holding capacity with corn oil. The settings on record: for Oil-holding capacity: five grams of corn oil, particle size 53 to 106 μm, powder added until end point. As to the method:
Using a particulate composition containing hydrous crystalline ascorbic acid 2-glucoside obtained by the method in Experiment 3-2, the oil-holding capacity of the particulate composition was determined. As a control, “AA2G”, a product name of a commercialized particulate composition containing anhydrous crystalline ascorbic acid 2-glucoside with a purity of at least 98% by weight, commercialized by Hayashibara Biochemical Laboratories, Inc., Okayama, Japan, was used.
The measurements for oil-holding capacity of the particulate compositions were conducted as follows in accordance with the method disclosed in Japanese Patent Kokai No. 31650/84. Five grams of a corn oil (a reagent grade specimen, Lot No.: WKL1215, commercialized by Wako Pure Chemical Industries, Osaka, Japan, was placed in a 50-ml plastic container, to which was gradually added while stirring the particulate composition containing hydrous crystalline ascorbic acid 2-glucoside or the particulate composition containing anhydrous crystalline ascorbic acid 2-glucoside, both of which had been adjusted to give a particle size of 53 to 106 μm similarly as in Experiment 6. Although the resulting mixture retains a free-flowing ability while the additive amount of any of the particulate compositions is relatively low, but it increases its viscosity as the increase of the additive amount and becomes a clump in due course. As the additive amount further increases, the clump increases its hardness and finally it could not keep together and begins to be unstiffen. The moment was regarded as the end point and the oil-holding capacity was determined by the following equation based on the amount of each crystalline particulate composition that had been added until the end point.

The nature of series [2]: Tabletting property (cracking or chipping of pressed tablets). Conditions: powder with particle size 53 to 106 μm, 0.4 g, one ton load for 30 sec, 10 tablets observed for cracking or chipping. An excerpt:
The tabletting property of a particulate composition containing hydrous crystalline ascorbic acid 2-glucoside of the present invention was investigated by the following method and compared with that of a conventional particulate composition containing anhydrous crystalline ascorbic acid 2-glucoside.
A hydrous crystalline ascorbic acid 2-glucoside powder with an ascorbic acid 2-glucoside purity of 99.2% by weight, obtained by the method in Experiment 3, was sieved to collect a powder with a particle size ranging from 53 to 106 μm. The powder thus obtained was placed in a metallic mold for tabletting (11 mm diameter and 30 mm thickness) in an amount of 0.4 g, and tabletted by loading on the powder one ton for 30 sec using “SSP-10A”, a portable press machine, commercialized by Shimadzu Corp., Kyoto, Japan, followed by taking out the resulting tablets by releasing the load. The procedure was repeated 10 times to prepare 10 tablets in total. As a control, “AA2G”, a trade mark of a commercialized particulate composition containing anhydrous crystalline ascorbic acid 2-glucoside with a purity of at least 98%, commercialized by Hayashibara Biochemical Laboratories, Inc., Okayama, Japan, was used to prepare a powder with a particle size ranging from 53 to 106 μm, which was then prepared into 10 tablets by the same method as above. […]

Series [3] is described as follows: Tablet hardness measured on a rheometer. Conditions: tablet of Experiment 6, RHEOMETER CR-500DX. An excerpt: During the preparation of tablets, the particulate composition was frequently observed, as a causative of cracking, to be adhered to a cylinder (punch) of the portable press machine at the stage of releasing the load and it induced cracking at the stage of taking out from the metallic mold of the press machine.

Where [4] appears, read: listed as particulate composition containing anhydrous crystalline ascorbic acid 2-glucosi.
The mark [5] stands for this setting: listed as particulate composition containing hydrous crystalline ascorbic acid 2-glucoside.

Consider `O=C1O[C@H]([C@@H](O)CO)C(O)=C1O[C@H]1O[C@H](CO)[C@@H](O)[C@H](O)[C@H]1O` [Particulate composition containing anhydrous crystalline asc] [2-O-α-D-glucosyl-L-ascorbic acid], for which the Oil-holding capacity in series [1] and in series [1] (setting [4]) was 25.2 throughout. Also, the Tablet form result in series [2] (setting [4]) is recorded as “cracking or chipping was observed in 9 out of 10 tablets”.
Regarding `O=C1O[C@H]([C@@H](O)CO)C(O)=C1O[C@H]1O[C@H](CO)[C@@H](O)[C@H](O)[C@H]1O` [Particulate composition containing hydrous crystalline ascor] [2-O-α-D-glucosyl-L-ascorbic acid], in series [3], the “degree of hardness of tablet” value is recorded as “about 90 N”. The Oil-holding capacity in series [1] and in series [1] (setting [5]) was 38.3 in each case. Further, the “Oil-holding capacity relative to the anhydrous crystalline control” value in series [1] (hydrous versus anhydrous particulate composition) is “about 1.5 folds”. Besides, the Tablet form result in series [2] (setting [5]) is on record as “neither cracking nor chipping was observed in all the 10 tablets”.
